Laboratory results from publication PMC8141582, “Synergistic Effect of Statins and Abiraterone Acetate on the Growth Inhibition of Neuroblastoma via Targeting Androgen Receptor” (Frontiers in Oncology, 2021).

Experiments:
N2a cells = assay: MTT cell viability assay, N2a; type: cell-based, mouse; conditions: for IC50: Mus musculus, N2a, NB cell line, MTT, 72 h
Method: (§1) N2a, SH-SY5Y, SK-N-BE (2), 10A, HUVEC, HL7702 cells were plated in 96-well plates at 8,000 cells/well, respectively, in complete media in triplicate wells for each dose and cultured for 18 h. The neuroblastoma cell lines, N2a, SH-SY5Y, and SK-N-BE (2), and non-cancer cell lines, 10A, HUVEC, and HL7702, were treated with simvastatin and fluvastatin in a range of doses from 0 to 20 μM and with AA from 0 to 30 μM; N2a, SH-SY5Y SK-N-BE (2), were treated with rosuvastatin in a range of doses from 0 to 100 μM for 72 h. Statins dissolved in DMSO and AA dissolved in ethanol. After 72 h treatment, the medium was added 0.5 mg/ml MTT reagent and incubated at 37°C for 4 h. Subsequently, the supernatant was aspirated, and cells were lysed in 150 µl DMSO, then shaken 10 min at 37°C. The optical density (OD) was measured at 570 and 630 nm using a plate reader.

SH-SY5Y cells = assay: MTT cell viability assay, SH-SY5Y; type: cell-based; conditions: Homo sapiens, NB cell line, 72 h
Method: as §1

SK-N-BE (2) cells = assay: MTT cell viability assay, SK-N-BE (2); type: cell-based; conditions: Homo sapiens, SKNBE2, NB cell line, 72 h
Method: as §1

10A cells = assay: MTT cell viability assay, 10A; type: cell-based; conditions: Homo sapiens, normal cell line, 72 h
Method: (§2) Statins dissolved in DMSO and AA dissolved in ethanol. After 72 h treatment, the medium was added 0.5 mg/ml MTT reagent and incubated at 37°C for 4 h. Subsequently, the supernatant was aspirated, and cells were lysed in 150 µl DMSO, then shaken 10 min at 37°C. The optical density (OD) was measured at 570 and 630 nm using a plate reader.

HUVEC cells = assay: MTT cell viability assay, HUVEC; type: cell-based; conditions: Homo sapiens, normal cell line, 72 h
Method: as §2

HL7702 cells = assay: MTT cell viability assay, HL7702; type: cell-based; conditions: Homo sapiens, L02, normal cell line, 72 h
Method: as §2

NB cells = test system: NB cells; parameters: method as in PMID 28326012; conditions: cited from earlier work; for proliferation, migration, invasion, and sphere formation of NB cells: AR antagonists, hormone-free medium
SH-SY5Y xenografts = assay: SH-SY5Y tumor xenograft study; type: in vivo, BALB/c nude mice; conditions: AA 150 mg/kg, oral daily
Excerpt: Four weeks old BALB/c nude mice of both sexes were purchased from Vital River Laboratory Animal Technology Co., Ltd. (Beijing, China) and maintained under specific pathogen-free conditions. Male mice were castrated 5 days before cell inoculation. […] Then, all the mice were divided randomly into four groups: control group (Placebo, n = 7), simvastatin group (Sim, n = 6), abiraterone acetate group (AA, n = 6), and combination group (Com, n = 6) including three male mice in each group. […] AA 150 mg/kg/day; combined simvastatin 10 mg/kg/day with AA 75 mg/kg/day. Tumor was harvested after 10 days of dosing, then fixed half of a tumor in 4% buffered formaldehyde for IHC and the other half was stored −80°C for RT-PCR and Western Blots analysis.

22RV1 cells = test system: 22RV1 cells; parameters: key to Results (abiraterone acetate alone): Positive: Abiraterone acetate alone inhibited the progression of cancer; Negative: Abiraterone acetate could not inhibit the progression of cancer; conditions: Prostate Cancer, 200.0 mg/kg, oral; ref Supplement [29]; cited from earlier work
PC-3 cells = test system: PC-3 cells; parameters: key to Results (abiraterone acetate alone): Positive: Abiraterone acetate alone inhibited the progression of cancer; Negative: Abiraterone acetate could not inhibit the progression of cancer; conditions: Prostate Cancer, 98.0 mg/kg/day, oral; ref Supplement [28]; cited from earlier work
LNCaP cells = test system: LNCaP cells; parameters: method as in Supplement [30]; key: Positive: Abiraterone acetate alone inhibited the progression of cancer; Negative: Abiraterone acetate could not inhibit the progression of cancer; conditions: Prostate Cancer, 3.5 mg/kg/day, i.p.; ref Supplement [30]; cited from earlier work
MDA-MB-453 cells = test system: MDA-MB-453 cells; parameters: method as in Supplement [31]; key: Positive: Abiraterone acetate alone inhibited the progression of cancer; Negative: Abiraterone acetate could not inhibit the progression of cancer; conditions: Breast Cancer, 285.7 mg/kg/day, oral; ref Supplement [31]; cited from earlier work
Caki2 cells = test system: Caki2 cells; parameters: method as in Supplement [32]; key: Positive: Abiraterone acetate alone inhibited the progression of cancer; Negative: Abiraterone acetate could not inhibit the progression of cancer; conditions: Renal Cell Carcinoma, 195.8 mg/kg/day, i.p.; ref Supplement [32]; cited from earlier work

Row | SMILES | IC50 (N2a cells) [µM] | IC50 (SH-SY5Y cells) [µM] | IC50 (SK-N-BE (2) cells) [µM] | IC50 (10A cells) [µM] | IC50 (HUVEC cells) [µM] | IC50 (HL7702 cells) [µM] | proliferation, migration, invasion, and sphere formation of NB cells (NB cells) | other results
1 | CC(C)n1c(/C=C/C(O)CC(O)CC(=O)O)c(-c2ccc(F)cc2)c2ccccc21 (stereo not shown) [Fluvastatin] | 5.09 | 6 | 8.41 | 13.3 | 8.96 | 29.7 |  | 
2 | CC(C)c1nc(N(C)S(C)(=O)=O)nc(-c2ccc(F)cc2)c1/C=C/[C@@H](O)C[C@@H](O)CC(=O)O [Rosuvastatin] | 68.4 | > 100 | 67.6 |  |  |  |  | 
3 | C[C@]1(O)CC[C@H]2[C@@H]3CCC4=CC(=O)CCC4=C3C=C[C@@]21C [R1881] |  |  |  |  |  |  |  | growth of NB (NB cells; AR agonist, in vitro and in vivo): promoted the growth of NB in vitro and in vivo
4 | CC(=O)O[C@H]1CC[C@@]2(C)C(=CC[C@@H]3[C@@H]2CC[C@]2(C)C(c4cccnc4)=CC[C@@H]32)C1 [Abiraterone acetate] | 4.32 | 2.72 | 9.86 | 5.2 | 22.6 | 5.31 |  | inhibition rate (N2a cells; N2a cells, 2.5 μM AA): ~20%; tumor growth (SH-SY5Y xenografts): tumor growth delay; Results (abiraterone acetate alone) (22RV1 cells): Negative; Results (abiraterone acetate alone) (PC-3 cells): Positive; Results (abiraterone acetate alone) (LNCaP cells): Positive; Results (abiraterone acetate alone) (MDA-MB-453 cells): Negative; Results (abiraterone acetate alone) (Caki2 cells): Positive
5 | CNC(=O)c1ccc(N2C(=S)N(c3ccc(C#N)c(C(F)(F)F)c3)C(=O)C2(C)C)cc1F [MDV3100] |  |  |  |  |  |  | significantly decreased | 
6 | CNC(=O)c1ccc(N2C(=S)N(c3cnc(C#N)c(C(F)(F)F)c3)C(=O)C23CCC3)cc1F [ARN509] |  |  |  |  |  |  | significantly decreased | 
